Experimental data from patent US8937091B2 (Japan Science and Technology Agency, priority 2009, dated 2015).
Like-named read-outs stand apart in the source and are kept apart here.

Assays:
TGase = TGase (Cavia porcellus, UniProt P08587); assay type: biochemical; conditions: level with DMSO control designated as 100
Protocol: An enzyme reaction solution (0.1 ml) (100 mM HEPES-NaOH, pH 7.5, 1 mM CaCl2, 20 μM monodansyl cadaverine, 0.05 mg/ml N,N-dimethylcasein, 5 μg/ml TGase) was introduced into wells of a 96-well plate (Nunc, 96 Well Black Plate with Clear Bottom). A test compound was added in concentrations of 0.3, 1.0, 3.0, 10, and 30 μM. The solution and the compound were sufficiently mixed while preventing foaming. The plate was set in the fluorescence drug screening system FDSS 3000 (Hamamatsu Photonics K.K.). TGase-inhibiting activity of the compound was calculated by assaying changes in fluorescence wavelength (at 340 nm) per unit time. […] The assay level at which TGase activity decreased by half in the presence of the test compound was designated as TG 50.
Hereafter, the numerals in parentheses written after the TG level, the SOCE level, and the IICR level correspond to the test compound concentrations. The number following the name of each title compound used in the Examples below represents a compound ID number designated arbitrarily by the present inventors.

[1] = test system: SOCE (store operated calcium entry) in CHO cells; test: Assay of SOCE (store operated calcium entry)-inhibiting action; assay type: cell-based, Chinese hamster; conditions: CHO cells, thapsigargin
Method in brief: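 CHO cells in calcium-free BSS received compound, then 1 μM thapsigargin 2 min later to deplete stores; after 9 min, 2 mM calcium chloride (final) added. Percent inhibition of the rise in intracellular calcium determined at various compound concentrations.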

[2] = test system: IICR (IP3 induced calcium release) in CHO cells; test: Assay of IICR (IP3 induced calcium release)-inhibiting action; assay type: cell-based, Chinese hamster; conditions: CHO cells, 10 μM ATP
Method in brief: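 Inhibition (%) of the intracellular calcium increase triggered by 10 μM ATP, measured in CHO cells in BSS with calcium. Compound given 1 min after the buffer exchange and 2 min before ATP; values reported per compound concentration.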

Row | Compound | TG level (TGase; test compound 3 μmol) | TG level (TGase; test compound 10 μmol) | TG level (TGase; test compound 30 μmol) | SOCE level (percentage of inhibition) ([1]; test compound 10 μmol) [%] | SOCE level (percentage of inhibition) ([1]; test compound 30 μmol) [%] | SOCE level (percentage of inhibition) ([1]; test compound 100 μmol) [%] | IICR level (percentage of inhibition) ([2]; test compound 10 μmol) [%] | IICR level (percentage of inhibition) ([2]; test compound 30 μmol) [%] | IICR level (percentage of inhibition) ([2]; test compound 100 μmol) [%]
1 | O=C(CCNCCSSCCNCCC(=O)c1ccc(Br)s1)c1ccc(Br)s1 [Example 340] | 0.8 | 2.5 | 4.3 | 0 | 18 | 65 | 0 | 40 | 60
2 | O=C(CCNCCCCNCCC(=O)c1ccc(Br)s1)c1ccc(Br)s1 [Example 356] | 93 | 22.6 | 3.6 | 0 | 3 | 10 | 0 | 0 | 10
3 | O=C(CCNCCSSCCNCCC(=O)c1cccs1)c1cccs1 [Example 369] | 95.1 |  | −64.9 | 20 | 40 | 50 | 0 | 0 | 70
4 | O=C(CCNCCSSCCNCCC(=O)c1ccc2ccccc2c1)c1ccc2ccccc2c1 [Example 370] | 36 |  | 1.6 | 0 | 0 | 3 | 0 | 0 | 29
5 | O=C(CCNCCSSCCNCCC(=O)c1ccco1)c1ccco1 [Example 372] | 13 |  | −1.5 | 0 | 0 | 15 | 0 | 54 | 58
6 | O=C(CCNCCSSCCNCCC(=O)c1ccsc1)c1ccsc1 [Example 380] | 25 |  | 4.2 | 4 | 31 | 70 | 10 | 76 | 81
7 | N,N-bis(2-(4-bromobenzoyl)ethyl)cystinemethylester [Example 392] | 25 | 3.7 | 2.3 | 20 | 40 | 50 | 58 | 61 | 76
8 | N,N-bis(2-(4-pyridinoyl)ethyl)cystinemethylester [Example 393] | 54 | 16 | 3.5 | 20 | 40 | 50 | 44 | 42 | 21
9 | N,N-bis(2-(5-bromo-2-thiophenoyl)ethyl)cystinemethylester [Example 386] | 4.6 | 2.9 | 14 | 20 | 40 | 50 | 44 | 72 | 77
10 | N,N-bis(2-naphthoylethyl)cystinemethylester [Example 391] | 33 | 6.4 | 29 | 20 | 40 | 50 | 6 | 37 | 41
11 | N,N-bis(2-thiophenoylethyl)cystinemethylester [Example 389] | 9.7 | 2.7 | −3.8 | 20 | 40 | 50 | 22 | 45 | 54
